How the values were obtained:
normotensive mice = experiment: systolic pressure in normotensive mice (caudal vessel); assay type: in vivo; details: 1 mg/kg delivered orally
[1] = target: T1, angiotensin converting enzyme (ACE) (Oryctolagus cuniculus, UniProt P12822); experiment: colorimetric ACE inhibition assay (Serra et al.); assay type: biochemical; details: read-out: ACE inhibiting activity IC50
T1 sequence (P12822 34-1310): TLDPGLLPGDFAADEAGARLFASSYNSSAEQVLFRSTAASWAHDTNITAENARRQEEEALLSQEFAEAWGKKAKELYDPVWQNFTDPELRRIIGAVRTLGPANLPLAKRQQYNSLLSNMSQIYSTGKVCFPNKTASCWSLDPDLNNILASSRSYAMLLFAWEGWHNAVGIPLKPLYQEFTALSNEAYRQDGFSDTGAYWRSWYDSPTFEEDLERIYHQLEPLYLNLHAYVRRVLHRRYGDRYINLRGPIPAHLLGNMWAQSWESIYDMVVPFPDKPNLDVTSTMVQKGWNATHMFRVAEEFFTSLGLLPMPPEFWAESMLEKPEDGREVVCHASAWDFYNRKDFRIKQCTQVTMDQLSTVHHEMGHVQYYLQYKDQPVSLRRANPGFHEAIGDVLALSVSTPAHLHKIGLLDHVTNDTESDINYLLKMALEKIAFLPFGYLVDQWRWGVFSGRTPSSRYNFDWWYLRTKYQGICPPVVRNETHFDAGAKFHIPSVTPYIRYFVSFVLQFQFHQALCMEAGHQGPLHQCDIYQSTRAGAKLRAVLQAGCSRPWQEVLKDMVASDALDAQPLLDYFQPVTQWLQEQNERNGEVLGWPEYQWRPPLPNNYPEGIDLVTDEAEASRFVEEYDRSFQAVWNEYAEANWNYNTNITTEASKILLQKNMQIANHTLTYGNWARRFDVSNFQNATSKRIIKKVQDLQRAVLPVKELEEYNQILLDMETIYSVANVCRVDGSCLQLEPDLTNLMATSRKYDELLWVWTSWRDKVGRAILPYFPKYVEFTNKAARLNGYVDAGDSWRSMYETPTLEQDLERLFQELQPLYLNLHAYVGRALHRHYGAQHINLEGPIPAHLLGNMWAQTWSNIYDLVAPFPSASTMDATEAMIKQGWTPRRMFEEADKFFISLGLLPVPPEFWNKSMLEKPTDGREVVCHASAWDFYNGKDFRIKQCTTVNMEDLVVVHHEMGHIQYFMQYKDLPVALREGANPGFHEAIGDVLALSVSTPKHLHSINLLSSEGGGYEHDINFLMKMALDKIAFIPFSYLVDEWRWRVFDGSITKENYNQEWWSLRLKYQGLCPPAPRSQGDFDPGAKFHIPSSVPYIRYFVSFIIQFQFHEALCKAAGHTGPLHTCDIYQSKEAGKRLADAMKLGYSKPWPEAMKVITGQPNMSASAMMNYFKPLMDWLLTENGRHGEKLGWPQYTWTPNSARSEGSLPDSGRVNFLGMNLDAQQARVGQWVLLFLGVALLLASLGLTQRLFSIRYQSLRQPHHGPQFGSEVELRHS
Excerpt: Despite being exhaustively referred to in ethnobotanic surveys, only few biological activities of Hancornia speciosa have been assessed. ACE inhibiting activity for ethanolic extract from the leaves of the said species has been referred to by Serra et al. (Serra, C. P.; Cortes, S. F.; Lombardi, J. A.; Braga De Oliveira, A.; Braga, F. C. Validation of a […] assay for the in vitro screening of inhibitors of angiotensin-converting enzyme (ACE) from plant extracts. Phytomedicine, v. 12, n. 6-7, 2005). These authors assessed several species of the Brazilian flora as for their ACE inhibiting potential. […] P.; Cortes, S. F.; Lombardi, J. A.; Braga De Oliveira, A.; Braga, F. C. Validation of a colorimetric assay for the in vitro screening of inhibitors of angiotensin-converting enzyme (ACE) from plant extracts. Phytomedicine, v. 12, n. 6-7, 2005), in the concentration of 0.1 mg/ml.

SMILES | systolic arterial pressure / hypotensive effect (normotensive mice) | IC50 [1]
C[C@H](CS)C(=O)N1CCC[C@H]1C(=O)O [Captopril] | significant hypotensive effect, but of low intensity and short duration | 
COC1[C@H](O)[C@H](O)C(O)[C@H](O)[C@H]1O (stereo partly drawn) [L-(+)-bornesitol] |  | 41.4 ± 9.6 µM
C[C@@H]1O[C@@H](OC[C@H]2O[C@@H](Oc3c(-c4ccc(O)c(O)c4)oc4cc(O)cc(O)c4c3=O)[C@H](O)[C@@H](O)[C@@H]2O)[C@H](O)[C@H](O)[C@H]1O [rutin] |  | 454 ± 78.4 µM
